Assay results as given in US6004905A, “Hyperabas: biologically active abscisic acid analogs with unsaturated carbon substituents at the 8'-methyl or 9'-methyl carbon atoms” (National Research Council of Canada, priority 1998, dated 1999).
pEC50, pIC50: −log10 of the molar value. “Also recorded” adds a separate entry of the source. Like-named read-outs stand apart in the source and are kept apart here.

Tests used:
[1] = test system: suspension-cultured corn cells (var. Black Mexican Sweet); assay: Growth inhibition of suspension-cultured corn cells; assay type: cell-based, corn (maize); conditions: for growth inhibition activity (comparison in words): four days; for inhibition at 0.33 µM / pIC50: Zea mays, 96 h; for inhibition at 0.33 µM: four day period, read-out: growth inhibition relative to the control; for pIC50: four days after addition, read-out: concentration required for 50% inhibition of growth
[2] = ABA-like (hormonal) activity in various assays; set-up: species or system plants; conditions: wheat and cress
[3] = test system: suspension-cultured corn cells; assay: Medium pH changes in corn cell suspension cultures; assay type: cell-based, corn (maize); conditions: 10 μM solution
Description: Cell growth was measured by the change in fresh weight over a 4-day period, as previously described (Balsevich et al.^6, 1994). The medium pH changes associated with addition of (+)-ABA and (+)-8'-methylene ABA were also measured as described by Balsevich et al.^6, (1994).

corn cells = assay: Depletion (persistence) from corn cell culture media; assay type: in vitro ADME, corn (maize)
Description: Ethanolic stock solutions of (+)-ABA, (+)-8'-methylene ABA and (+)-8'-methyl ABA were added to flasks containing 0.2 g of corn cells and 10 ml of culture medium to obtain a final concentration of 100 μM of hormone or analog. Aliquots of medium (100 μl) were removed at intervals and analyzed for ABA or ABA analog content by HPLC as described previously (Balsevich et al.^6, 1994). Each compound was inoculated into 3 flasks and duplicate samples were removed at the indicated time points. The corn cells were used 1 or 2 days after subculturing.

[4] = test system: Black Mexican Sweet maize cells; assay: Metabolites from maize suspension cells; assay type: in vitro ADME; conditions: 100 μM, 90 h
Description: Eighteen g of Black Mexican Sweet maize cells were subcultured into a 1L flask containing 500 ml sterile medium as described previously (Balsevich et al.^6, 1994). […] At the end of the culture period, the cells were removed by filtration. The filtrate was frozen until processed for isolation.
The metabolites were extracted from the culture filtrate by a chromatographic procedure using Supelco Amberlite XAD-2 resin (Balsevich et al. 6, 1994). The crude product isolated from the resin was partially purified by preparative TLC (silica gel 60 GF254, 20 cm×20 cm×1 mm, toluene-EtOAc-HOAc 25:15:2 as eluent), giving two isomeric acids, The acids were separately reacted with diazomethane, and then further purified by HPLC as their methyl esters yielding approx. 0.5 mg of each metabolite.

cress seed = assay: Cress seed germination inhibition; assay type: in vivo; conditions: for germination of cress seed: 5 μM (printed 5 M)
Description: The experimental conditions were as follows: 100 seeds are placed on a 9 cm Whatman no. 1 filter paper in a petri dish and treated with 5 ml of solution.
The final concentration of the ethanol in the assay solutions was <0.05%. Assays were conducted with 100 seeds in each Petri dish and performed in triplicate. The germination measurements were based on the growth of the primary root. A seed was considered germinated when the radical was approximately the same length as the seed.

excised wheat embryos [5] = assay: Wheat embryo germination inhibition; assay type: in vivo, Triticum aestivum L. cv. Clark's Cream; conditions: for concentration giving equivalent germination inhibition: (+)-8'-methylene ABA versus (+)-ABA (FIG. 12)
Description: Grains of soft white wheat (Triticum aestivum L. cv. Clark's Cream) were used. For bioassay, embryos with some adhering endosperm and pericarp attached were cut from the grains with a razor blade. Analogs were prepared by dissolving into a minimal amount of DMSO to prepare a 0.1 M solution, and then diluted with […], pH 5.8, to 0.01, 0.1, 1, 10 and 100 μM. For each analog concentration six replicate germination assays were conducted on 10 embryos each at 30° C. Embryos were incubated in Petri dishes (100×15 mm) containing 6 ml solution.

[6] = test system: ABA-responsive cor6.6 promoter; assay: ABA-inducible gene expression (GUS activity) in transgenic tobacco seedlings containing Pcor6.6-GUS; assay type: in vivo, transgenic tobacco (promoter from Arabidopsis thaliana); conditions: 24 hours; for induction of GUS activity: 200 micromolar, relative to untreated control
Source text: The results shown are an average of duplicate assays on samples containing 34 seedlings.
The results shown are an average of duplicate samples containing cotyledons from 34 seedlings.

wheat seedlings = assay: Transpiration in wheat seedlings; assay type: in vivo, Triticum aestivum L. cv Katepwa; conditions: for reduction of transpiration (summary in words): in vivo; for reduction in transpiration: (+)-forms of methyl esters, 100 μM, 3 hours (FIG. 8); for pEC50: Triticum aestivum, 3 h, intact wheat seedlings, three hours after application, read-out: concentration to reduce the transpiration rate to 50% (TR50)
Source text: ABA is a key signal molecule involved in regulating transpiration in plants (W. J. Davies T. A. Mansfield 1988 Abscisic acid and drought resistance in plants ISI Atlas of Science: Animal and Plant Sciences 0894-3761 p. 263-269). […] This difference in activity is shown in FIG. 4 in which the % transpiration effected by the (+)-forms of methyl esters of ABA (214) , 8'-methyl (370) and 8'-methylene ABA (357) are compared. The structures are as follows: [drawing 13] Seed Germination
The transpiration rate of 6 to 10 day old wheat seedlings (Triticum aestivum L. cv Katepwa) was measured as previously described (Rose et al.^7, 1996 incorporated herein by reference). Antitranspirant activity of the analogs (prepared as a 1% ethanol solution in water) was measured over a range of concentrations to determine the concentration where the transpiration rate of the wheat seedling is reduced by 50%. The transpiration rate (μMol H2 O/cm^2 s) was calculated and then given as a percentage of the initial transpiration rate of the plant (typically 0.28-0.35 μMol H2 O/cm^2 s), corrected for the effect of the control (1% ethanol).
ABA is a key signal molecule involved in regulating transpiration in plants. We had previously determined that esters were as active as acids in this assay (data not shown) so the effect of the methyl esters of natural ABA (+)-^8 '-methylene ABA and 8'-methyl ABA on transpiration in intact wheat seedlings was compared three hours after application. […] The difference in responses may be due to reduced uptake of the 8'-methyl ABA in the intact wheat seedling.

excised wheat embryos [7] = conditions: Walker-Simmons et al., 1992, cited from earlier work
[8] = test system: suspension-cultured corn cells; conditions: Balsevich et al 1994, cited from earlier work
[9] = test system: suspension-cultured corn cells (var. Black Mexican Sweet); conditions: Balsevich et al 1994, cited from earlier work

## C#CC1(C)CC(=O)C=C(C)C1(O)C=CC(C)=CC(=O)O (stereo not shown) [8'-acetylene ABA]
[1]
  growth inhibition activity (comparison in words): more potent than ABA

## C=C[C@@]1(C)CC(=O)C=C(C)[C@]1(O)/C=C/C(C)=C\C(=O)O [(+)-8'-methylene ABA, (+) 8'-methyleneabscisic acid]
[2]
  germination inhibition in seeds of both a monocot and a dicot: more effective germination inhibitor in seeds of both a monocot and a dicot
[3]
  shift in pH of the medium: causes a comparable shift in pH as that produced by ABA
[3]; listed as (+)- 8'-methylene ABA
  shift in pH of the medium: causes as great a shift in pH as ABA
Corn cells; corn, corn cell culture medium, 100 µM
  time by which 50% had disappeared from the medium: ~100 h
[4]
  metabolites identified: two isomeric epoxides
Cress seed; 1 μM
  germination inhibition of cress seed: more potent than ABA
Cress seed
  germination of cress seed: does not germinate
Cress seed; listed as 8'-Methylene analog
  germination of cress seed: remain dormant
Cress seed; in vivo
  germination inhibition of cress seed (summary in words): more effective than ABA
Excised wheat embryos [5]
  concentration giving equivalent germination inhibition: 1.0 µM
Excised wheat embryos [5]; embryos from dormant wheat grains (FIG. 12)
  times more effective than natural ABA, germination inhibition of excised wheat embryos: at least 10 times
Excised wheat embryos [5]; in vivo
  germination inhibitory activity, wheat embryos (in words): more active than (+)-ABA; also recorded: most potent compound over all concentrations and time points; also recorded: more effective than ABA
[6]; 100 μM
  induction of ABA-responsive gene expression (in words): slightly weaker inducer than ABA; also recorded: highly effective in inducing ABA-responsive gene expression
[6]
  induction of GUS activity: strongly induced GUS activity
Wheat seedlings
  reduction of transpiration (summary in words): more effective than ABA
[1]
  inhibition at 0.33 µM: 64%
  pIC50: > 6.48
  growth inhibition activity (comparison in words): stronger growth inhibition activity than (+)-ABA at all tested concentrations; also recorded: more effective than ABA
[1]; listed as 8'-methylene ABA
  growth inhibition activity (comparison in words): the strongest growth inhibition produced by any ABA analog so far
[1]; listed as (+)-methylene ABA
  growth inhibition activity (comparison in words): significantly stronger than either (+)-ABA or (+)-8'-methyl ABA

## C=CC1(C)CC(=O)C=C(C)C1(O)/C=C/C(C)=C\C(=O)OC (single isomer, unassigned; (+)) [(+)-9'-ethylene methyl ABA]
Wheat seedlings
  reduction in transpiration: Equivalent high activity

## COC(=O)/C=C(C)\C=C\[C@@]1(O)C(C)=CC(=O)CC1(C)C [compound 214]
Wheat seedlings
  reduction in transpiration: Equivalent high activity
Wheat seedlings; methyl ester, unit M
  pEC50: 4.30 to 4.60

## C=C[C@@]1(C)CC(=O)C=C(C)[C@]1(O)/C=C/C(C)=C\C(=O)OC [compound 357, (+) Methyl 8'-methyleneabscisate]
Wheat seedlings; methyl esters
  pEC50: 5.00 to 5.30
Wheat seedlings
  reduction of transpiration (summary in words): most active analog

## CC[C@@]1(C)CC(=O)C=C(C)[C@]1(O)/C=C/C(C)=C\C(=O)OC [compound 370]
Wheat seedlings; methyl esters
  pEC50: 4.00
Wheat seedlings
  reduction of transpiration (summary in words): relatively weak in this assay
Wheat seedlings; methyl esters, (+)-forms, 10 μM, 3 hours (FIG. 4)
  % transpiration effect (comparison in words): not as active as the vinyl analog

## CC1=CC(=O)CC(C)(C)[C@@]1(O)/C=C/C(C)=C\C(=O)O [(+)-ABA, abscisic acid]
Corn cells; initial 100 μM, corn cell culture (FIG. 10)
  time by which 50% had disappeared from the medium: ≤ 24 h
Excised wheat embryos [7]
  germination inhibitory activity, wheat embryos (literature): equally effective in inhibiting germination
Excised wheat embryos [7]; listed as ABA
  germination inhibitory activity, wheat embryos (literature): both enantiomers of ABA were equally effective
[8]; listed as Natural ABA
  shift (elevation) in pH of the medium (literature): causes a transient elevation of pH of the corn cell culture medium; also recorded: causes a shift in the pH of the medium of cultured corn cells
[8]; after ABA addition
  time of maximum of transient elevation of medium pH: about 6 h
Cress seed
  germination of cress seed: begins to germinate
Excised wheat embryos [5]
  concentration giving equivalent germination inhibition: 10 µM
[6]
  induction of GUS activity: strongly induced GUS activity
[9]
  growth inhibition (literature): inhibits growth of maize suspension-cultured cells over a four day period
[9]; listed as Natural ABA
  growth inhibition (literature): causes growth inhibition
[1]
  inhibition at 0.33 µM: 17%
  pIC50: ~5.00

## CC1=CC(=O)CC(C)(C)[C@]1(O)/C=C/C(C)=C\C(=O)O [(-)-ABA]
Excised wheat embryos [7]
  germination inhibitory activity, wheat embryos (literature): equally effective in inhibiting germination
[8]
  shift (elevation) in pH of the medium (literature): only weakly
